Where “and” joins values, the source holds several entries; their conditions need not be identical. Equal values may be shown once.
target: T1, Thromboxane A2 receptor (Homo sapiens, UniProt P21731)
T1 sequence (P21731 whole entry): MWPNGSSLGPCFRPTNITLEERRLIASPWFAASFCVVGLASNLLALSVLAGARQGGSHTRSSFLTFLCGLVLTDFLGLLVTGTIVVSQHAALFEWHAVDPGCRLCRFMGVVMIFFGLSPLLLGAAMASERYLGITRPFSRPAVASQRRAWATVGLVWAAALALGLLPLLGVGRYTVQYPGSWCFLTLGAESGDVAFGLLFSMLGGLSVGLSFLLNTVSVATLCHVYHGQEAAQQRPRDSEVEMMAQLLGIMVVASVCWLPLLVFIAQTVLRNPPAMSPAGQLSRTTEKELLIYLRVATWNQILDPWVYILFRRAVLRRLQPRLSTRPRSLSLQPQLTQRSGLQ

Row | Ki | SMILES
1 | 3.7 nM and 1.4 nM | O=C(O)CCC/C=C\C[C@@H]1[C@@H](/C=C/[C@@H](O)COc2ccc(I)cc2)[C@H]2CC[C@@H]1O2 [CAS_128719-90-4]
2 | 64 nM and 44 nM and 38 nM | CCCCCC(O)C=CC1C2COC(C2)C1CC=CCCCC(=O)O (centres undefined) [NSC_114865]
3 | 117 nM and 400 nM and 121 nM | CC1(C)C2CC(NCC(O)Cc3ccc(O)c(I)c3)C(CC=CCCCC(=O)O)C1C2 (centres undefined) [NSC_122979]
4 | 77 nM and 82 nM and 50 nM | CCCCC[C@H](O)/C=C/C1[C@@H](C/C=C\CCCC(=O)O)[C@H]2CO[C@@H]1C2 (some centres undefined) [U46619]
